Earlier results as cited in patent publication US20150328159A1, “Composition” (Innovata Limited, priority 2009, published 2015).

solubility in organic solvents: insoluble
Substance: hyaluronic acid
